Assay results taken from patent US8044082B2, “N-phenylacetamide inhibitors of the enzyme SOAT-1 and pharmaceutical/cosmetic compositions comprised thereof” (Galderma Research & Development, priority 2007, dated 2011).

Row | SMILES | melting point
1 | CC(C)c1cccc(C(C)C)c1NC(=O)CN1C(=O)N(c2ccccc2)C2(CCCCC2)C1=O [compound (I.2), N-(2,6-Diisopropylphenyl)-2-(2,4-dioxo-1-phenyl-1,3-diazaspiro[4.5]dec-3-yl)acetamide] | 245 °C
2 | Cc1cc(C(=O)N(C)C2CCCCC2)cc(C)c1NC(=O)CN1C(=O)N(c2ccccc2)C2(CCCCC2)C1=O [compound (I.3), N-(Cyclohexyl)-4-[2-(2,4-dioxo-1-phenyl-1,3-diazaspiro[4.5]dec-3-yl]-acetylamino]-3,5,N-trimethylbenzamide] | 177 °C
3 | Cc1cc(C(=O)N(C)c2ccccc2)cc(C)c1NC(=O)CN1C(=O)N(c2ccccc2)C2(CCCCC2)C1=O [compound (I.4), 4-[2-(2,4-Dioxo-1-phenyl-1,3-diazaspiro[4.5]dec-3-y]acetylamino]-3,5,N-tri methyl-N-phenylbenzamide] | 242 °C
4 | CC(C)c1cccc(C(C)C)c1NC(=O)CN1C(=O)N(c2ccc(Cl)cc2)C2(CCCCC2)C1=O [compound (I.6), 2-[1-(4-Chlorophenyl)-2,4-dioxo-1,3-diazaspiro[4.5]dec-3-yl]-N-(2,6-di-isopropylphenyl)acetamide] | 237 °C
5 | COc1ccc(N2C(=O)N(CC(=O)Nc3c(C(C)C)cccc3C(C)C)C(=O)C23CCCCC3)cc1 [compound (I.8), N-(2,6-Diisopropylphenyl)-2-[1-(4-methoxyphenyl)-2,4-dioxo-1,3-diazaspiro[4.5]dec-3-yl]acetamide] | 193 °C
6 | CC(C)c1cccc(C(C)C)c1NC(=O)CN1C(=O)N(c2ccccc2)C2(CCCCCC2)C1=O [compound (I.9), N-(2,6-Diisopropylphenyl)-2-(2,4-dioxo-1-phenyl-1,3-diazaspiro[4.6]undec-3-yl)acetamide] | 230 °C
7 | CC(C)c1cccc(C(C)C)c1NC(=O)CN1C(=O)N(c2cccc(F)c2)C2(CCCCC2)C1=O [compound (I.11), N-(2,6-Diisopropylphenyl)-2-[1-(3-fluorophenyl)-2,4-dioxo-1,3-diazaspiro[4.5]dec-3-yl]acetamide] | 234 °C
8 | CC(C)c1cccc(C(C)C)c1NC(=O)CN1C(=O)N(c2cccc(Cl)c2)C2(CCCCC2)C1=O [compound (I.12), 2-[1-(3-Chlorophenyl)-2,4-dioxo-1,3-diazaspiro[4.5]dec-3-yl]-N-(2,6-di-isopropylphenyl)acetamide] | 240 °C
9 | CC(C)c1cccc(C(C)C)c1NC(=O)CN1C(=O)N(C2CCCC2)C2(CCCCC2)C1=O [compound (I.13), 2-(1-Cyclopentyl-2,4-dioxo-1,3-diazaspiro[4.5]dec-3-yl)-N-(2,6-diisopropyl-phenyl)acetamide] | 257 °C
10 | CC(C)c1cccc(C(C)C)c1NC(=O)CN1C(=O)N(C2CCCCCC2)C2(CCCCC2)C1=O [compound (I.15)] | 248 °C
11 | Cc1cccc(N2C(=O)N(CC(=O)Nc3c(C(C)C)cccc3C(C)C)C(=O)C23CCCCC3)c1 [compound (I.16), N-(2,6-Diisopropylphenyl)-2-(2,4-dioxo-1-m-tolyl-1,3-diazaspiro[4.5]dec-3-yl)acetamide] | 215 °C
12 | CC(C)c1cccc(C(C)C)c1NC(=O)CN1C(=O)N(c2ccc(F)cc2)C2(CCCC2)C1=O [compound (I.17), N-(2,6-Diisopropylphenyl)-2-[1-(4-fluorophenyl)-2,4-dioxo-1,3-diazaspiro[4.4]non-3-yl]acetamide] | 268 °C
13 | COc1cccc(N2C(=O)N(CC(=O)Nc3c(C(C)C)cccc3C(C)C)C(=O)C23CCCCC3)c1 [compound (I.18), N-(2,6-Diisopropylphenyl)-2-[1-(3-methoxyphenyl)-2,4-dioxo-1,3-diazaspiro[4.5]dec-3-yl]acetamide] | 198 °C
14 | CC(C)c1cccc(C(C)C)c1NC(=O)CN1C(=O)N(c2ccccc2F)C2(CCCCC2)C1=O [compound (I.19)] | 231 °C
15 | CC(C)c1cccc(C(C)C)c1NC(=O)CN1C(=O)N(c2ccccc2Cl)C2(CCCCC2)C1=O [compound (I.20), 2-[1-(2-Chlorophenyl)-2,4-dioxo-1,3-diazaspiro[4.5]dec-3-yl]-N-(2,6-di-isopropylphenyl)acetamide] | 252 °C
16 | Cc1ccccc1N1C(=O)N(CC(=O)Nc2c(C(C)C)cccc2C(C)C)C(=O)C12CCCCC2 [compound (I.21), N-(2,6-Diisopropylphenyl)-2-(2,4-dioxo-1-o-tolyl-1,3-diazaspiro[4.5]dec-3-yl)acetamide] | 238 °C
17 | CC(C)c1cccc(C(C)C)c1NC(=O)CN1C(=O)N(Cc2ccccc2)C2(CCCCC2)C1=O [compound (I.22), 2-(1-Benzyl-2,4-dioxo-1,3-diazaspiro[4.5]dec-3-yl)-N-(2,6-diisopropyl-phenyl)acetamide] | 214 °C
18 | CC(C)c1cccc(C(C)C)c1NC(=O)CN1C(=O)N(c2ccc(Cl)cc2)C2(CCCC2)C1=O [compound (I.24), 2-[1-(4-Chlorophenyl)-2,4-dioxo-1,3-diazaspiro[4.4]non-3-yl]-N-(2,6-di-isopropylphenyl)acetamide] | 270 °C

Row | SMILES | melting point
19 | CCCN1C(=O)N(CC(=O)Nc2c(C(C)C)cccc2C(C)C)C(=O)C12CCCCC2 [compound (I.25), N-(2,6-Diisopropylphenyl)-2-(2,4-dioxo-1-propyl-1,3-diazaspiro[4.5]dec-3-yl)acetamide] | 253 °C
20 | CC(C)c1cccc(C(C)C)c1NC(=O)CN1C(=O)N(CC2CCCCC2)C2(CCCCC2)C1=O [compound (I.27), 2-(1-Cyclohexylmethyl-2,4-dioxo-1,3-diazaspiro[4.5]dec-3-yl)-N-(2,6-di-isopropylphenyl)acetamide] | 219 °C
21 | CC(C)CN1C(=O)N(CC(=O)Nc2c(C(C)C)cccc2C(C)C)C(=O)C12CCCCC2 [compound (I.28), N-(2,6-Diisopropylphenyl)-2-(1-isobutyl-2,4-dioxo-1,3-diazaspiro[4.5]dec-3-yl)acetamide] | 233 °C
22 | CCCCCN1C(=O)N(CC(=O)Nc2c(C(C)C)cccc2C(C)C)C(=O)C12CCCCC2 [compound (I.29), N-(2,6-Diisopropylphenyl)-2-(2,4-dioxo-1-pentyl-1,3-diazaspiro[4.5]dec-3-yl)acetamide] | 200 °C
23 | CCCCCCCN1C(=O)N(CC(=O)Nc2c(C(C)C)cccc2C(C)C)C(=O)C12CCCCC2 [compound (I.30), N-(2,6-Diisopropylphenyl)-2-(1-heptyl-2,4-dioxo-1,3-diazaspiro[4.5]dec-3-yl)acetamide] | 208 °C
24 | CC(C)c1cccc(C(C)C)c1NC(=O)CN1C(=O)N(CC2CC2)C2(CCCCC2)C1=O [compound (I.31), 2-(1-Cyclopropylmethyl-2,4-dioxo-1,3-diazaspiro[4.5]dec-3-yl)-N-(2,6-di-isopropylphenyl)acetamide] | 240 °C
25 | CC(C)c1cccc(C(C)C)c1NC(=O)CN1C(=O)N(CC(C)(C)C)C2(CCCCC2)C1=O [compound (I.32), N-(2,6-Diisopropylphenyl)-2-[1-(2,2-dimethylpropyl)-2,4-dioxo-1,3-diazaspiro[4.5]dec-3-yl]acetamide] | 250 °C
26 | COc1ccccc1N1C(=O)N(CC(=O)Nc2c(C(C)C)cccc2C(C)C)C(=O)C12CCCCC2 [compound (I.33), N-(2,6-Diisopropylphenyl)-2-[1-(2-methoxyphenyl)-2,4-dioxo-1,3-diazaspiro[4.5]dec-3-yl]acetamide] | 229 °C
27 | Cc1ccc(N2C(=O)N(CC(=O)Nc3c(C(C)C)cccc3C(C)C)C(=O)C23CCCC3)cc1 [compound (I.34), N-(2,6-Diisopropylphenyl)-2-(2,4-dioxo-1-p-tolyl-1,3-diazaspiro[4.4]non-3-yl)acetamide] | 278 °C
28 | CCCCCCN1C(=O)N(CC(=O)Nc2c(C(C)C)cccc2C(C)C)C(=O)C12CCCCC2 [compound (I.35), N-(2,6-Diisopropylphenyl)-2-(1-hexyl-2,4-dioxo-1,3-diazaspiro[4.5]dec-3-yl)acetamide] | 205 °C
29 | CCc1ccc(N2C(=O)N(CC(=O)Nc3c(C(C)C)cccc3C(C)C)C(=O)C23CCCCC3)cc1 [compound (I.36), N-(2,6-Diisopropylphenyl)-2-[1-(4-ethylphenyl)-2,4-dioxo-1,3-diazaspiro[4.5]dec-3-yl]acetamide] | 221 °C
30 | CCc1ccc(N2C(=O)N(CC(=O)Nc3c(C(C)C)cccc3C(C)C)C(=O)C23CCCC3)cc1 [compound (I.37), N-(2,6-Diisopropylphenyl)-2-[1-(4-ethylphenyl)-2,4-dioxo-1,3-diazaspiro[4.4]non-3-yl]acetamide] | 246 °C
31 | CCCCc1ccc(N2C(=O)N(CC(=O)Nc3c(C(C)C)cccc3C(C)C)C(=O)C23CCCCC3)cc1 [compound (I.38), 2-[1-(4-Butylphenyl)-2,4-dioxo-1,3-diazaspiro[4.5]dec-3-yl]-N-(2,6-diisopropylphenyl)acetamide] | 220 °C
32 | CCCCc1ccc(N2C(=O)N(CC(=O)Nc3c(C(C)C)cccc3C(C)C)C(=O)C23CCCC3)cc1 [compound (I.40), 2-[1-(4-Butylphenyl)-2,4-dioxo-1,3-diazaspiro[4.4]non-3-yl]-N-(2,6-diisopropylphenyl)acetamide] | 228 °C
33 | CC(C)c1cccc(C(C)C)c1NC(=O)CN1C(=O)N(c2ccc(OCc3ccccc3)cc2)C2(CCCC2)C1=O [compound (I.41), 2-[1-(4-Benzyloxyphenyl)-2,4-dioxo-1,3-diazaspiro[4.4]non-3-yl]-N-(2,6-di-isopropylphenyl)acetamide] | 232 °C
34 | CC(C)c1cccc(C(C)C)c1NC(=O)CN1C(=O)N(c2ccc(CO)cc2)C2(CCCCC2)C1=O [compound (I.42), N-(2,6-Diisopropylphenyl)-2-[1-(4-hydroxymethylphenyl)-2,4-dioxo-1,3-diazaspiro[4.5]dec-3-yl]acetamide] | 230 °C
35 | CCCCCCCCCN1C(=O)N(CC(=O)Nc2c(C(C)C)cccc2C(C)C)C(=O)C12CCCCC2 [compound (I.43), N-(2,6-Diisopropylphenyl)-2-(1-nonyl-2,4-dioxo-1,3-diazaspiro[4.5]dec-3-yl)acetamide] | 183 °C
36 | CCCCCCCCN1C(=O)N(CC(=O)Nc2c(C(C)C)cccc2C(C)C)C(=O)C12CCCCC2 [compound (I.44), N-(2,6-Diisopropylphenyl)-2-(1-octyl-2,4-dioxo-1,3-diazaspiro[4.5]dec-3-yl)acetamide] | 202 °C
